Assay results published in the supplement of paper PMC9663587.

Assays:
[1] = compound: CC(=O)O[C@H]1C(=O)[C@@]2(C)[C@H]([C@H](OC(=O)c3ccccc3)[C@]3(O)C[C@H](OC(=O)[C@H](O)[C@@H](NC(=O)c4ccccc4)c4ccccc4)C(C)=C1C3(C)C)[C@]1(OC(C)=O)CO[C@@H]1C[C@@H]2O [Paclitaxel]
[2] = compound: CC(C)NC[C@@H](C(=O)N1CCN(c2ncnc3c2[C@H](C)C[C@H]3O)CC1)c1ccc(Cl)cc1 [Ipatasertib/GDC0068]
[3] = compound: CCNC(=O)c1noc(-c2cc(C(C)C)c(O)cc2O)c1-c1ccc(CN2CCOCC2)cc1 [Luminespib/NVP-AUY922]
[4] = compound: CN(C)C/C=C/C(=O)Nc1ccc(O[C@@H]2CCC[C@@H](Nc3ncc(Cl)c(-c4c[nH]c5ccccc45)n3)C2)cc1 [BSJ-01-175]
[5] = compound: CN(C)CC[C@H](CSc1ccccc1)Nc1ccc(S(=O)(=O)NC(=O)c2ccc(N3CCN(Cc4ccccc4-c4ccc(Cl)cc4)CC3)cc2)cc1[N+](=O)[O-] [ABT-737]
[6] = compound: T1, CN1CC[C@H](c2c(O)cc(O)c3c(=O)cc(-c4ccccc4Cl)oc23)[C@H](O)C1 [Flavopiridol]
[7] = compound: COc1cccc2c1C(=O)c1c(O)c3c(c(O)c1C2=O)C[C@@](O)(C(=O)CO)C[C@@H]3O[C@H]1C[C@H](N)[C@H](O)[C@H](C)O1 [Doxorubicin]
[8] = compound: Cc1nc(-c2cn3c(n2)-c2ccc(-c4cnn(C(C)(C)C(N)=O)c4)cc2OCC3)n(C(C)C)n1 [Taselisib/GDC0032]
[9] = compound: O=C(c1cc(Cc2n[nH]c(=O)c3ccccc23)ccc1F)N1CCN(C(=O)C2CC2)CC1 [Olaparib/AZD2281]
[10] = compound: C=CC(=O)Nc1ccc(C(=O)Nc2[nH]nc3c2CN(C(=O)N[C@H](CN(C)C)c2ccccc2)C3(C)C)cc1 [YKL-5-124]; test: GR value, 72 h; higher = faster growth (1 = untreated, <0 = killing);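 further: breast cancer and non-malignant breast epithelial lines, nine half-log doses, viable cells counted by Hoechst and LIVE/DEAD dye imaging versus time-zero plates and DMSO controls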
[11] = compound: CC(=O)c1c(C)c2cnc(Nc3ccc(N4CCN(CCOCCOCCOCCNC(=O)COc5cccc6c5C(=O)N(C5CCC(=O)NC5=O)C6=O)CC4)cn3)nc2n(C2CCCC2)c1=O [BSJ-03-123]; test: as above
[12] = compound: CC(=O)c1c(C)c2cnc(Nc3ccc(N4CCNCC4)cn3)nc2n(C2CCCC2)c1=O; test: as above
[13] = compound: CCN1CCN(Cc2ccc(Nc3ncc(F)c(-c4cc(F)c5nc(C)n(C(C)C)c5c4)n3)nc2)CC1; test: as above
[14] = compound: CCc1cnn2c(NCc3ccc[n+]([O-])c3)cc(N3CCCC[C@H]3CCO)nc12; test: as above
[15] = compound: CN(C)C(=O)c1cc2cnc(Nc3ccc(N4CCNCC4)cn3)nc2n1C1CCCC1 [LEE011/Ribociclib]; test: as above
[16] = compound: CN(C)C/C=C/C(=O)Nc1ccc(C(=O)N2CCC[C@@H](Nc3ncc(Cl)c(-c4c[nH]c5ccccc45)n3)C2)cc1 [THZ531]; test: as above
[17] = compound: T1, Flavopiridol; test: as above
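Wherever GR50, 72 h is given: breast cancer and non-malignant breast epithelial cell lines, Deep Dye Drop or Dye Drop imaging, nine half-log doses, GR normalized to time-zero plates and DMSO-only controls.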

T47D
GR50, 72 h [1]: 0.00353 µM | GR50, 72 h [2]: 0.136 µM | GR50, 72 h [3]: 0.00607 µM | GR50, 72 h [4]: 0.189 µM | GR50, 72 h [5]: > 10 µM | GR50, 72 h [6]: 0.116 µM | GR50, 72 h [7]: 0.00189 µM | GR50, 72 h [8]: 0.00179 µM | GR50, 72 h [9]: > 10 µM | GR value ([10]; 0.001 µM): 0.51 GR | GR value ([10]; 0.003162 µM): 0.332 GR | GR value ([10]; 0.01 µM): 0.172 GR | GR value ([10]; 0.03162 µM): 0.143 GR | GR value ([10]; 0.1 µM): 0.0629 GR | GR value ([10]; 0.3162 µM): 0.0978 GR | GR value ([10]; 1 µM): 0.082 GR | GR value ([10]; 3.162 µM): 0.0131 GR | GR value ([10]; 10 µM): -0.175 GR | GR value ([11]; 0.001 µM): 0.505 GR | GR value ([11]; 0.003162 µM): 0.473 GR | GR value ([11]; 0.01 µM): 0.28 GR | GR value ([11]; 0.03162 µM): 0.231 GR | GR value ([11]; 0.1 µM): 0.228 GR | GR value ([11]; 0.3162 µM): 0.203 GR | GR value ([11]; 1 µM): 0.115 GR | GR value ([11]; 3.162 µM): 0.165 GR | GR value ([11]; 10 µM): 0.118 GR | GR value ([12]; 0.0003162 µM): 1.07 GR | GR value ([12]; 0.001 µM): 1.08 GR | GR value ([12]; 0.003162 µM): 1.04 GR | GR value ([12]; 0.01 µM): 0.782 GR | GR value ([12]; 0.03162 µM): 0.478 GR | GR value ([12]; 0.1 µM): 0.203 GR | GR value ([12]; 0.3162 µM): 0.177 GR | GR value ([12]; 1 µM): 0.122 GR | GR value ([12]; 3.162 µM): 0.132 GR | GR value ([13]; 0.001 µM): 0.86 GR | GR value ([13]; 0.003162 µM): 0.604 GR | GR value ([13]; 0.01 µM): 0.244 GR | GR value ([13]; 0.03162 µM): 0.0789 GR | GR value ([13]; 0.1 µM): 0.166 GR | GR value ([13]; 0.3162 µM): 0.117 GR | GR value ([13]; 1 µM): 0.171 GR | GR value ([13]; 3.162 µM): 0.0597 GR | GR value ([13]; 10 µM): -0.03 GR | GR value ([14]; 0.0001 µM): 0.999 GR | GR value ([14]; 0.0003162 µM): 1.01 GR | GR value ([14]; 0.001 µM): 1.08 GR | GR value ([14]; 0.003162 µM): 1.12 GR | GR value ([14]; 0.01 µM): 1.05 GR | GR value ([14]; 0.03162 µM): -0.0667 GR | GR value ([14]; 0.1 µM): -0.128 GR | GR value ([14]; 0.3162 µM): -0.19 GR | GR value ([14]; 1 µM): -0.22 GR | GR value ([15]; 0.001 µM): 0.614 GR | GR value ([15]; 0.003162 µM): 0.624 GR | GR value ([15]; 0.01 µM): 0.407 GR | GR value ([15]; 0.03162 µM): 0.413 GR | GR value ([15]; 0.1 µM): 0.297 GR | GR value ([15]; 0.3162 µM): 0.244 GR | GR value ([15]; 1 µM): 0.174 GR | GR value ([15]; 3.162 µM): 0.151 GR | GR value ([15]; 10 µM): 0.163 GR | GR value ([16]; 0.0001 µM): 1.06 GR | GR value ([16]; 0.0003162 µM): 0.984 GR | GR value ([16]; 0.001 µM): 1.04 GR | GR value ([16]; 0.003162 µM): 0.925 GR | GR value ([16]; 0.01 µM): 1.15 GR | GR value ([16]; 0.03162 µM): 1.06 GR | GR value ([16]; 0.1 µM): 0.675 GR | GR value ([16]; 0.3162 µM): -0.121 GR | GR value ([16]; 1 µM): -0.102 GR | GR value ([17]; 0.0001 µM): 0.983 GR | GR value ([17]; 0.0003162 µM): 1.05 GR | GR value ([17]; 0.001 µM): 0.945 GR | GR value ([17]; 0.003162 µM): 1.05 GR | GR value ([17]; 0.01 µM): 0.897 GR | GR value ([17]; 0.03162 µM): 0.808 GR | GR value ([17]; 0.1 µM): 0.548 GR | GR value ([17]; 0.3162 µM): 0.148 GR | GR value ([17]; 1 µM): -0.153 GR
